# “And” between values parts separate entries of the source, which are not always exact repeats. Equal values may be shown once. Marks after values point to notes of the source that are not given here.
# Tests used:
# [1] = tested on: Neisseria gonorrhoea (ATCC700825); assay: Mouse vaginal infection model; details: mice; Meropenem IV bolus 50 mg/kg for seven days; p<0.05
# [2] = tested on: Neisseria gonorrhoea (ATCC700825); details: in vivo, 50 mg/kg
# [3] = tested on: E. coli [ATCC 25922]; assay: Ascending Urinary Tract Infection Rat Model (kidneys, bladder); format: in vivo
# [4] = tested on: Influenza A virus (H1N1) Strain: A/NWS/33; assay: Mouse influenza model (C57BL/6), body weights and lung viral titers; format: in vivo
# [5] = tested on: Staphylococcus aureus [ATCC 43300]; assay: Burn Wound Infection Model in rats; format: in vivo
# [6] = Meropenem 30 mg/kg single dose i.v. bolus
# [7] = Meropenem 30 mg/kg single dose i.v. bolus, individual animals
# [8] = Meropenem single IV bolus 30 mg/kg, E1 50 and 500 mg/kg i.v. 24 h infusion
compound,measurement,setting,value
C[C@@H](O)[C@H]1C(=O)N2C(C(=O)O)=C(S[C@@H]3CN[C@H](C(=O)N(C)C)C3)[C@H](C)[C@H]12 [Meropenem],bactericidal activity in vaginal load compared to vehicle control,[1],significant bactericidal activity in vaginal load
same,Clinical signs,[2],N
same,Mean Log10CFU/g Bladder change (wrt 4 h PI control: 6.54 Log10CFU/g Bladder),[3]; [6],−1.11 Log10CFU/g
same,Mean Log10CFU/g kidney change (wrt 4 h PI control: 4.73 Log10CFU/g kidneys),[3]; [6],−1.27 Log10CFU/g
same,Mean ± SD (Log10 CFU/g Bladder),[3]; [6],5.43 ± 0.36 Log10 CFU/g Bladder
same,Mean ± SD (Log10 CFU/g kidneys),[3]; [6],3.46 ± 0.19 Log10 CFU/g kidneys
same,Log10 CFU/g Bladder,[3]; [7],5.04 Log10 CFU/g and 5.24 Log10 CFU/g and 5.91 Log10 CFU/g and 5.25 Log10 CFU/g and 5.71 Log10 CFU/g
same,Log 10 CFU/g Kidneys Left kidney,[3]; [7],3.46 Log 10 CFU/g (2×) and 3.61 Log 10 CFU/g and 3.41 Log 10 CFU/g and 3.37 Log 10 CFU/g
same,Log 10 CFU/g Kidneys Right kidney,[3]; [7],3.36 Log 10 CFU/g and 3.69 Log 10 CFU/g and 3.80 Log 10 CFU/g and 3.16 Log 10 CFU/g and 3.31 Log 10 CFU/g
same,antibacterial activity in kidneys compared to vehicle control,[3]; [8],significant bactericidal activity in kidneys
same,antibacterial activity in the bladder compared to vehicle control,[3]; [8],significant bactericidal activity in the bladder
NC(=O)c1ncn([C@@H]2O[C@H](CO)[C@@H](O)[C@H]2O)n1 [Ribavirin],body weights compared to vehicle control on day 4,"[4]; Ribavarin, E1 25, 50 and 100 mg/kg, CE3 100, 500 and 1000 mg/kg, p<0.05",significantly higher body weights
same,viral growth rate and viral load in the lungs compared to vehicle control,"[4]; Ribavirin 66 mg/kg IP, E1 25-100 mg/kg, CE3 100-1000 mg/kg iv bid",significantly reduced the viral growth rate and viral load in the lungs
same,viral titres compared to vehicle control on day 4,"[4]; Ribavirin, E1 25, 50 and 100 mg/kg, CE3 100, 500 and 1000 mg/kg, p<0.05",significantly lower viral titres
same,Body weights Mean,"[4]; mice infected with H1N1, Ribavarin 66 mg/kg i.p., Day 0",23.92 g
same,Body weights Mean,"[4]; mice infected with H1N1, Ribavarin 66 mg/kg i.p., Day 1",23.50 g
same,Body weights Mean,"[4]; mice infected with H1N1, Ribavarin 66 mg/kg i.p., Day 2",24.22 g
same,Body weights Mean (g),"[4]; mice infected with H1N1, Ribavarin 66 mg/kg i.p., Day 4",24.67* g
same,Body weights Mean,"[4]; mice infected with H1N1, Ribavarin 66 mg/kg i.p., Day 6",24.70 g
same,body weight through the study,"[4]; mice infected with H1N1, Ribavirin 66 mg/kg once daily IP",no significant decrease in body weight
Saframycin,bacterial load on day 4 compared to day 1,"[5]; E1, CE3 100 μl (19.15 mg/ml) topical 3 days, Saframycin 30 mg topical b.i.d 3 days",did not show significant efficacy on day 4 when compared to day 1
same,% wound contraction on Day 4 PI (Mean ± SD),"[5]; E1, CE3 100 μl (19.15 mg/ml) topical 3 days, Safromycin 30 mg topical b.i.d 3 days",2.48 ± 0.30%
same,wound reduction on day 4 compared to vehicle control,"[5]; E1, CE3 100 μl (19.15 mg/ml) topical 3 days, Safromycin 30 mg topical b.i.d 3 days, p<0.05",significant reduction wound on day 4
same,Bacterial Load on skin post treatment Day 1 PI,"[5]; Mean ± SD, E1, CE3 100 μl (19.15 mg/ml) topical u.i.d 3 days, Safromycin 30 mg topical b.i.d 3 days, Day 1 PI",5.84 ± 0.35 Logic CFU/Swab
same,Bacterial Load on skin post treatment Day 4 PI,"[5]; Mean ± SD, E1, CE3 100 μl (19.15 mg/ml) topical u.i.d 3 days, Safromycin 30 mg topical b.i.d 3 days, Day 4 PI",4.87 ± 0.63 Logic CFU/Swab
